Earlier results on one molecule are cited in patent US20070116778A1 (priority 2005, published 2007).

In data set [1] the test system is HIV. The following applies: human, in vivo.
Data set [2] relates to Neisseria gonorrhoae.

For `CCCCCCCCCCCC(=O)OCC(O)CO` (stereo not drawn) [Monolaurin], in data set [1], the “patients with reduced viral load” value was 8 patients and the side effects result is listed as “without any side effects”. Also, the “effect on the pathogen” value in data set [2] is “dissolves the outer lipid membrane and interferes with transcriptinase production”.
